# Experiments:
# [1] = system: NB9464 murine neuroblastoma tumor; test: NB9464 tumor growth in nude mice; type: in vivo; settings: 50 mg/kg, 3 days a week for 1.5 weeks, intra-peritoneal
# Excerpt: MYCN-overexpressing murine neuroblastoma cells (NB9464) were transplanted into nude mice, grown for 24 days and randomized into two groups.
# [2] = system: MYCN promoter region; test: Brd4 chromatin precipitation with quantitative PCR of MYCN promoter in SKNBE(2) cells; type: cell-based, human; settings: 24 hours exposure
# Protocol: MYCN amplified SKNBE(2) cells were exposed to inhibitors for 24 hours then chromatin was precipitated with Brd4 (rabbit polyclonal antibody) along with rabbit IgG as a negative control (IgG). Precipitated chromatin was analyzed for the MYCN gene (2 sites within the MYCN promoter region) by quantitative PCR and enrichment is shown as the percentage of total input DNA (FIG. 4). The negative control region primers amplify within a gene desert region approximately 1 Mb away from MYCN (MYC-N NR). Error bars represent±SEM of triplicate data. P<0.05 as compared to positive control (paired t-test).
# [3] = system: SKNBE(2) neuroblastoma cell line; test: Cytotoxicity / proliferation study, SKNBE(2); type: cell-based; settings: Homo sapiens, SKNBE2; SKNBE(2) cell line
# [4] = biological target: BRD4 (Homo sapiens, UniProt O60885); test: BRD4 inhibition assay (region not specified); type: binding
# Protocol: The activity of a compound of the invention as an inhibitor of a bromodomain-containing protein, such as a BET protein, such as BRD2, BRD3, BRD4, and/or BRDT, or an isoform or mutant thereof, may be determined in vitro, in vivo, or in a cell line. In vitro assays include assays that determine inhibition of bromodomain-containing proteins. Alternatively, inhibitor binding may be determined by running a competition experiment where a provided compound is incubated with a bromodomain-containing protein, such as a BET protein bound to known ligands, labeled or unlabeled. For example, bromodomain inhibition can be determined in vitro using Alpha Screen Technology (http://www.reactionbiology.com/webapps/site/NewsPDFs/Bromodomain%20Assay%20Platform%20for%20Drug%20Screening%20and%20Discovery.pdf). […] Bromodomain inhibition may also be predicted by in silico modeling as described below in the Examples.
# Computational modeling was performed using the commercially available FlexX (http://www.biosolveit.de/FlexX/download/flexx_brochure.pdf) software tools. […] It should be noted that the more negative the number or value of the docking score is, the stronger is the predicted binding energy at the BRD4 site that recognizes the acetyl lysine of chromatin.
# [5] = system: N-myc (MYCN) mRNA; test: Real-time PCR of N-myc mRNA in IMR32 cells; type: cell-based; settings: IMR32, 5 μM, 24 hrs
# [6] = system: MYCN-dependent MB patient derived xenograft (PDX) cell line; test: Cytotoxicity / proliferation study, PDX MB; type: cell-based; settings: Homo sapiens
# [7] = system: p-AKT(Ser473); test: Western blot of pAKT in SKNBE(2) cells; type: cell-based, human; settings: 24 hrs treatment, 50 ng/ml IGF stimulation
# Protocol: (§1) Cells were stimulated with 50 ng/ml IGF for 30 min and used for lysate preparation. Proteins were quantitated by the BCA protein assay (Pierce). Equal amounts of protein were resolved by polyacrylamide gels, transferred to nitrocellulose membrane and probed by Western blot with the following primary antibodies: p-AKT(Ser473), AKT (Cell Signaling Technologies), N-MYC, CyclinD1 and β-actin (Santa Cruz Biotechnology).
# [8] = system: N-MYC; test: Western blot of N-MYC in SKNBE(2) cells; type: cell-based, human; settings: 24 hrs treatment, 50 ng/ml IGF stimulation
# Protocol: as §1
# [9] = system: B16 F10 luciferase melanoma cells; test: B16 melanoma mouse model of metastasis; type: in vivo, mice; settings: 50 mg/kg every other day, 15 days
# Excerpt: The luciferase signal was monitored every third day by injecting luciferin, until the lungs were harvested on day 15 (n=5). […] Lungs extracted from these animals are shown below the luciferase imaged pictures supporting the repression of tumor growth in Cmpd 28-treated mice.
# [10] = system: Panc02 tumor cells; test: Orthotopic Panc02 pancreatic model of spontaneous metastasis; type: in vivo, mice; settings: 50 mg/kg three times a week
# Protocol: Panc02 (1×10^6) tumor cells were injected into the pancreas of WT mice (n=18). After 20 days, mice were randomized into two groups. One group was treated with DMSO (control) and the other group was treated with 50 mg/kg of SF2523, three times a week. Tumors were removed 35 days after tumor implantation. Values are mean±SEM (n=8 in each gp; P<0.01; pair wise two-sided Student's t test). […] Values are mean±SEM (n=7; P<0.01; pair wise two-sided Student's t test). The data are representative of three independent experiments performed.
# [11] = system: Cyclin D1 mRNA; test: Real-time PCR of Cyclin D1 mRNA in IMR32 cells; type: cell-based; settings: IMR32, 5 μM, 24 hrs
# [12] = system: NB9464 cell line; test: Cytotoxicity / proliferation study, NB9464; type: cell-based, murine; settings: Mus musculus
smiles,measurement,setting,value
O=c1cc(N2CCOCC2)oc2c(-c3ccc4c(c3)OCCO4)csc12 [Cmpd 28],tolerability (body weight),[1],well tolerated
same,tumor growth compared to vehicle,[1],significantly blocked tumor growth
same,"MYCN expression (Brd4-precipitated chromatin, MYCN promoter PCR)",[2],significantly repressed MYCN expression
same,IC50,[3],7.6 µM
same,BRD4 inhibition,[4],showed activity against BRD4 regions 1 and 2
same,MYCN mRNA expression,[5],inhibits MYCN expression
same,IC50,[6],3.6 µM
same,pAKT level by Western blot,[7],decreased MYCN and pAKT
same,MYCN quantity by Western blot,[8],decreased MYCN
same,luciferase bioimaging of cancer cells,[9],little evidence of the presence of cancer cells
same,reduction in metastatic nodules,[9]; lungs,60%
same,spontaneous metastasis,[10],blocks spontaneous metastasis
same,Cyclin D1 mRNA expression,[11],reducing mRNA expression
same,IC50,[12],8.7 µM
